Tests used:
Assay in all cases: relative viability (nuclei count vs DMSO), 5 days (fraction); higher = more cells survive
Alisertib + Phenformin = compound: COc1cc(Nc2ncc3c(n2)-c2ccc(Cl)cc2C(c2c(F)cccc2OC)=NC3)ccc1C(=O)O [Alisertib] + N=C(N)NC(=N)NCCc1ccccc1 [Phenformin] (partner 250 µM)
Outline: (§1)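 Cells from lung cancer lines were seeded into 1536-well plates and, one day later, dosed by pin tool. Treatments were either a single drug or a fixed dose of an anchor drug with five library-drug doses (not always all listed) in √10 steps. After 5 days, nuclei were stained in a one-step fixation (final 0.05% Triton X-100, 1% formaldehyde, 1 ug/ml Hoechst) and counted on 4× images, and relative viability is the treated-to-vehicle nuclei ratio, as the median of duplicate plates.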

Alisertib + AZD7762 = compound: COc1cc(Nc2ncc3c(n2)-c2ccc(Cl)cc2C(c2c(F)cccc2OC)=NC3)ccc1C(=O)O [Alisertib] + NC(=O)Nc1cc(-c2cccc(F)c2)sc1C(=O)N[C@H]1CCCNC1 [AZD7762] (partner 0.2 µM)
Outline: as §1

Alisertib + Alpelisib = compound: COc1cc(Nc2ncc3c(n2)-c2ccc(Cl)cc2C(c2c(F)cccc2OC)=NC3)ccc1C(=O)O [Alisertib] + Cc1nc(NC(=O)N2CCC[C@H]2C(N)=O)sc1-c1ccnc(C(C)(C)C(F)(F)F)c1 [Alpelisib] (partner 2 µM)
Outline: as §1

Alisertib + Pictilisib = compound: COc1cc(Nc2ncc3c(n2)-c2ccc(Cl)cc2C(c2c(F)cccc2OC)=NC3)ccc1C(=O)O [Alisertib] + CS(=O)(=O)N1CCN(Cc2cc3nc(-c4cccc5[nH]ncc45)nc(N4CCOCC4)c3s2)CC1 [Pictilisib] (partner 1 µM)
Outline: as §1

Cell Line	relative viability (Alisertib + Phenformin; first compound 0.005 µM)	relative viability (Alisertib + Phenformin; first compound 0.01581 µM)	relative viability (Alisertib + Phenformin; first compound 0.05 µM)	relative viability (Alisertib + Phenformin; first compound 0.1581 µM)	relative viability (Alisertib + Phenformin; first compound 0.5 µM)	relative viability (Alisertib + AZD7762; first compound 0.005 µM)	relative viability (Alisertib + AZD7762; first compound 0.01581 µM)	relative viability (Alisertib + AZD7762; first compound 0.05 µM)	relative viability (Alisertib + AZD7762; first compound 0.1581 µM)	relative viability (Alisertib + AZD7762; first compound 0.5 µM)	relative viability (Alisertib + Alpelisib; first compound 0.005 µM)	relative viability (Alisertib + Alpelisib; first compound 0.01581 µM)	relative viability (Alisertib + Alpelisib; first compound 0.05 µM)	relative viability (Alisertib + Alpelisib; first compound 0.1581 µM)	relative viability (Alisertib + Alpelisib; first compound 0.5 µM)	relative viability (Alisertib + Pictilisib; first compound 0.005 µM)	relative viability (Alisertib + Pictilisib; first compound 0.01581 µM)	relative viability (Alisertib + Pictilisib; first compound 0.05 µM)	relative viability (Alisertib + Pictilisib; first compound 0.1581 µM)	relative viability (Alisertib + Pictilisib; first compound 0.5 µM)
NCI-H1915	0.309	0.274	0.241	0.229	0.173	0.531	0.597	0.277	0.254	0.206	0.934	0.808	0.385	0.354	0.199	0.732	0.675	0.45	0.301	0.174
NCI-H1944	0.182	0.206	0.193	0.166	0.112	0.531	0.54	0.421	0.147	0.147	0.788	0.882	0.626	0.41	0.207	0.327	0.35	0.351	0.21	0.205
NCI-H1975	0.405	0.375	0.265	0.176	0.137	0.658	0.618	0.521	0.33	0.192	0.632	0.621	0.295	0.215	0.168	0.26	0.348	0.237	0.151	0.163
NCI-H1993	0.455	0.495	0.5	0.511	0.449	0.85	0.629	0.391	0.324	0.364	0.625	0.652	0.538	0.625	0.573	0.895	0.785	0.67	0.568	0.778
NCI-H2085	0.597	0.651	0.42	0.259	0.327	0.876	0.874	0.882	0.284	0.348	0.892	0.91	0.465	0.352	0.314	0.463	0.435	0.46	0.248	0.248
NCI-H2087	0.423	0.372	0.13	0.12	0.105	1.17	1.29	0.293	0.214	0.185	0.939	0.816	0.226	0.203	0.171	0.791	0.791	0.247	0.166	0.191
NCI-H2126	0.482	0.446	0.413	0.257	0.266	0.936	0.965	0.883	0.466	0.288	0.746	0.746	0.384	0.322	0.246	0.452	0.502	0.367	0.28	0.226
NCI-H2170	0.388	0.374	0.395	0.276	0.207	0.85	0.608	0.59	0.199	0.176	0.732	0.749	0.424	0.34	0.199	0.276	0.303	0.282	0.19	0.192

— the supplement of paper PMC10307832
